This series can be described thus: Parallel Artificial Membrane Permeability Assay (PAMPA). It is filed as in vitro ADME. Particulars: for Membrane Retention / Papp at 4 h: PAMPA; for Membrane Retention: pH 7.40, 4 hours; for Papp at 4 h: pH 7.4, pH 7.40, room temperature, read-out: PAMPA Pe; for PAMPA category: class from Pe and membrane retention. Here is the method:
PAMPA (Parallel Artificial Membrane Permeability Assay) is a first-line permeability screen for drug candidates. This assay mimics the transcellular absorption conditions using an artificial phospholipid membrane and generates a permeability value that can be used for compound ranking and optimization as well as input parameters for in silico models to predict intestinal absorption.
Permeation experiments are carried out in hydrophobic PVDF 96-well microtiter filter plates (MultiScreen Filter Plate, Millipore, #MAIPN4550). Each well is coated with PVDF membrane, which is prepared with 5 µL Dodecane (Sigma, D221104) that contains 1% lecithin (Sigma, P3556-1G).
The typical PAMPA experimental protocol is as follows: The donor plate is placed on a Teflon acceptor plate that has been pre-filled with 150 µL of 100 mM PBS buffer (2.6 g KH2PO4 and 18.5 g K2HPO4.3H2O are dissolved in about 1000 mL of ultra-pure water and mixed thoroughly. The pH is adjusted to 7.40 ± 0.05, using either 1 M sodium hydroxide or 1 M hydrochloric acid.) containing 5% DMSO. The filter on the bottom of each acceptor well is filled with 300 µL of 100 mM PBS buffer (2.6 g KH2PO4 and 18.5 g K2HPO4.3H2O are dissolved in about 1000 mL of ultra-pure water, mixed thoroughly. The pH was adjusted to 7.40 ± 0.05, using either 1 M sodium hydroxide or 1 M hydrochloric acid.). The resulting sandwich is incubated at room temperature under constant shaking (300 rpm) for 4 hours. The sandwich is then disassembled. Before incubation, spike 20 µL dosing solution and mix with 250 µL PBS and 130 µL quench solution (acetonitrile) as T0 sample. After incubation, collect 270 µL solutions from acceptor chamber, followed by the addition of 130 µL acetonitrile. Collect 20 µL solution from donor chamber and add 250 µL PBS and 130 µL acetonitrile. The concentration of compound in all samples are determined by LC-MS/MS and the equations for determining the permeability (Pe, 10^-6 cm/s ) are as follows.
VD is the volume of the donor well; VR is the volume of the acceptor well; Area is the active surface area of membrane; Time is the incubation time (14,400 s in this assay); CR and CD are the concentrations of compound in acceptor and donor solutions, respectively, at the completion of the assay; C0 is the concentration of compound in donor solution before incubation.
The main readout of the PAMPA assay is the permeability value Pe expressed in 10^-6 cm/s. Secondary readouts determined are the amounts of compound in the donor and acceptor compartments as well as compound retention in the membrane. Depending on the permeation rate and the membrane retention, compounds are classified as “low” (Pe < 0.2 and membrane retention <20%) or “medium & high” (Pe >= 0.2; or Pe < 0.2 and membrane retention >= 20%). Each sample is measured in triplicate; the standard deviation is determined for the permeation constant Pe.
(In PAMPA a lipid-coated filter parts donor from acceptor wells.)

Regarding `Cc1cc(-c2ccc(N3CCN(Cc4cnc(N5CCNCC5)nc4)CC3)nc2C(C)C)cn(C)c1=O` [Example 9, 5-[2-isopropyl-6-[4-[(2-piperazin-1-ylpyrimidin-5-yl)methyl]piperazin-1-yl]-3-pyridyl]-1,3-dimethyl-pyridin-2-one], the “Membrane Retention” value is on record as 27.230%; the Papp at 4 h came to 0.78 ×10⁻⁶ cm/s; the PAMPA category entry was “medium & high (“medium & high” (Pe >= 0.2; or Pe < 0.2 and membrane retention >= 20%))”.
As for `Cc1cc(-c2ccc(N3CCN(c4ccc5c(n4)CCNC5)CC3)nc2C(C)C)cn(C)c1=O` [Example 15, 5-[2-isopropyl-6-[4-(5,6,7,8-tetrahydro-1,6-naphthyridin-2-yl)piperazin-1-yl]-3-pyridyl]-1,3-dimethyl-pyridin-2-one], the “Membrane Retention” value is reported as 27.680%; the Papp at 4 h amounted to 0.23 ×10⁻⁶ cm/s; the PAMPA category result is “medium & high (“medium & high” (Pe >= 0.2; or Pe < 0.2 and membrane retention >= 20%))”.
For `Cc1cc(-c2ccc(N3CCN(Cc4cccc(N5CCNCC5)c4)CC3)nc2C(C)C)cn(C)c1=O` [Example 14, 5-[2-isopropyl-6-[4-[(3-piperazin-1-ylphenyl)methyl]piperazin-1-yl]-3-pyridyl]-1,3-dimethyl-pyridin-2-one], the “Membrane Retention” value was found to be 38.020%; the Papp at 4 h was 0.54 ×10⁻⁶ cm/s; the PAMPA category result was “medium & high (“medium & high” (Pe >= 0.2; or Pe < 0.2 and membrane retention >= 20%))”.

Values taken from patent publication US20230295109A1, “PYRIDINONE COMPOUNDS FOR THE TREATMENT OF AUTOIMMUNE DISEASE” (F. Hoffmann-La Roche AG, priority 2020, published 2023).
